Measured values from patent publication US11414416B1, “Compounds and uses thereof” (Foghorn Therapeutics Inc., priority 2019, dated 2022).

Columns and labels:
BRD9 bromodomain = BRD9 bromodomain (Homo sapiens (Human), UniProt Q9H8M2); experiment: BRD9 bromodomain TR-FRET competition binding assay; conditions: Table 4; competition with biotinylated ligand, 3 nM Flag-BRD9, 90 minutes
Method: Procedure: His-Flag-BRD9 (P133-K239; Swiss Prot Q9H8M2; SEQ ID NO:1 mgsshhhhhhenlyfq/gdykddddkgslevlfqg/[…] […]) was cloned, expressed, purified, and then treated with TEV protease. Cleaved His tag was removed by purification. The binding of a biotinylated small molecule ligand of BRD9 was assessed via the LANCE® TR-FRET platform (PerkinElmer), and the compounds were assayed for inhibitory activity against this interaction.
A mixture of biotinylated-ligand and SureLight™ Allophycocyanin-Streptavidin (APC-SA, PerkinElmer AD0201) in 50 mM HEPES (pH 7.4), 50 mM NaCl, 1 mM TCEP (pH 7), 0.01% (v/v) Tween-20, 0.01% (w/v) bovine serum albumin was added to a white 384-well PerkinElmer Proxiplate Plus plate. DMSO or 3-fold serially diluted compounds were then added to the Proxiplate followed by addition of Flag-BRD9. After a 10-minute incubation at room temperature, Eu-W1024 anti-FLAG (PerkinElmer, AD0273) was added. The final reaction mixture that contained 3.75 nM biotinylated ligand, 3 nM Flag-BRD9, 7.5 nM SureLight™ Allophycocyanin-Streptavidin, and 0.2 nM Eu-W1024 anti-FLAG was incubated at room temperature for 90 minutes.
Results: The plates were then read on a PerkinElmer Envision plate reader to determine the ratio of emission at 665 nm over 615 nm. […]

[1] = target: Nanoluciferase-BRD9 fusion protein (Homo sapiens (Human), UniProt Q9H8M2); experiment: SYO1 BRD9 NanoLuc degradation assay; assay type: cell-based; conditions: Table 5A, SYO-1 cells expressing 3×FLAG-NLuc-BRD9, 6 hours; for DC50: read-out: SYO1 BRD9-NanoLuc degradation IC50
Procedure, shortened: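 Degradation was read as loss of nanoluciferase signal (Nano-Glo) after 6 h compound exposure in a stable SYO-1 line carrying 3×FLAG-NLuc-BRD9 (8000 cells/well). Normalised between DMSO (high) and a 1 μM known BRD9 degrader (low).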

Sequence of BRD9 bromodomain (Q9H8M2 133-239): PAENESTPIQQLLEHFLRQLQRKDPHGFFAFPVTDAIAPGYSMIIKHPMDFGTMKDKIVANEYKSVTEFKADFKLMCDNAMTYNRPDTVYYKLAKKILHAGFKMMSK
Sequence of Nanoluciferase-BRD9 fusion protein (Q9H8M2 whole entry, the tested form may be a part): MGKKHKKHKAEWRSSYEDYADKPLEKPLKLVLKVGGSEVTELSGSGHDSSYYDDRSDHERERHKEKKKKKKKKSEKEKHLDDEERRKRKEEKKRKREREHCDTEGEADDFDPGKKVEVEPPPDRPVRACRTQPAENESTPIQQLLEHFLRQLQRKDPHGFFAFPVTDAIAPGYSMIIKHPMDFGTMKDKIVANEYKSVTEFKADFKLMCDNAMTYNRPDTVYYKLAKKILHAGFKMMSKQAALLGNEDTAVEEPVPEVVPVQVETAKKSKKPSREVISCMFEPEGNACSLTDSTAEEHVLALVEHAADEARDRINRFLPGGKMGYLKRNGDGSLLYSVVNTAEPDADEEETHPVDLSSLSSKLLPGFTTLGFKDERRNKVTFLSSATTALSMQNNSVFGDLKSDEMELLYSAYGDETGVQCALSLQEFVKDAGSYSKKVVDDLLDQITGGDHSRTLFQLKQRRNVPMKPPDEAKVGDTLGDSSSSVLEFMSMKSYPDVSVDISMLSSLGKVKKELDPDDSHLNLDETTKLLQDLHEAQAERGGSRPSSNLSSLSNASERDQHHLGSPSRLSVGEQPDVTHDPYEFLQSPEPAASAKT

SMILES | IC50 (BRD9 bromodomain) [nM] | DC50 [1] [nM] | IC50 [1] [nM]
COc1cc(-c2cn(C)c(=O)c3cnccc23)cc(OC)c1CN1CCC12CCN(C(=O)CCOCCOc1ccc3c(c1)C(=O)N(C1CCC(=O)NC1=O)C3=O)C2 (stereo not shown) [Compound D127] | < 10 | 100 to 1000 | 
COc1cc(-c2cn(C)c(=O)c3cnccc23)cc(OC)c1CN1CC(C(=O)NCCCCCNc2cccc3c2C(=O)N(C2CCC(=O)NC2=O)C3=O)C1 (stereo not shown) [Compound D3, 1-[[2,6-dimethoxy-4-(2-methyl-1-oxo-1,2-dihydro-2,7-naphthyridin-4-yl)phenyl]methyl]-N-(5-[[2-(2,6-dioxopiperidin-3-yl)-1,3-dioxo-2,3-dihydro-1H-isoindol-4-yl]amino]pentyl) azetidine-3-carboxamide] | < 10 |  | < 10
COc1cc(-c2cn(C)c(=O)c3cnccc23)cc(OC)c1CN1CCC2(CC1)CN(C(=O)CCCOc1cccc3c1C(=O)N(C1CCC(=O)NC1=O)C3=O)CCO2 (stereo not shown) [Compound D39, 4-[4-(9-[[2,6-dimethoxy-4-(2-methyl-1-oxo-2,7-naphthyridin-4-yl)phenyl]methyl]-1-oxa-4,9-diazaspiro[5.5]undecan-4-yl)-4-oxobutoxy]-2-(2,6-dioxopiperidin-3-yl)isoindole-1,3-dione] | < 10 |  | < 10
COc1cc(-c2cn(C)c(=O)c3cnccc23)cc(OC)c1CN(C)CC1CC2(CCN(C(=O)CCOCCOc3cccc4c3C(=O)N(C3CCC(=O)NC3=O)C4=O)CC2)CO1 (stereo not shown) [Compound D109] | < 10 | 10 to 100 | 
COc1cc(-c2cn(C)c(=O)c3cnccc23)cc(OC)c1CN(C)CC12CC(C(=O)NCCCCCNc3cccc4c3C(=O)N(C3CCC(=O)NC3=O)C4=O)(C1)C2 (stereo not shown) [Compound D56, 3-[([[2,6-dimethoxy-4-(2-methyl-1-oxo-2,7-naphthyridin-4-yl)phenyl]methyl](methyl)amino)methyl]-N-(5-[[2-(2,6-dioxopiperidin-3-yl)-1,3-dioxoisoindol-4-yl]amino]pentyl)bicyclo[1.1.1]pentane-1-carboxamide] | < 10 |  | < 10
COc1cc(-c2cn(C)c(=O)c3cnccc23)cc(OC)c1CN(C)C1CCC12CCN(C(=O)CCOCCOc1cccc3c1C(=O)N(C1CCC(=O)NC1=O)C3=O)CC2 (stereo not shown) [Compound D110] | 10 to 100 |  | 10 to 100
COc1cc(-c2cn(C)c(=O)c3cnccc23)cc(OC)c1CN1CC[C@H]1C(=O)NCCCCCCCCNc1cccc2c1C(=O)N(C1CCC(=O)NC1=O)C2=O (stereo partly drawn) [Compound D11, (2S)-1-[[2,6-dimethoxy-4-(2-methyl-1-oxo-2,7-naphthyridin-4-yl)phenyl]methyl]-N-(8-[[2-(2,6-dioxopiperidin-3-yl)-1,3-dioxoisoindol-4-yl]amino]octyl)azetidine-2-carboxamide] | 10 to 100 |  | < 10
COc1cc(-c2cn(C)c(=O)c3cnccc23)cc(OC)c1CN(C)C12CC(NC(=O)CCOCCOCCNc3cccc4c3C(=O)N(C3CCC(=O)NC3=O)C4=O)(C1)C2 (stereo not shown) [Compound D59, N-[3-([[2,6-dimethoxy-4-(2-methyl-1-oxo-2,7-naphthyridin-4-yl)phenyl]methyl](methyl)amino)bicyclo[1.1.1]pentan-1-yl]-3-[2-(2-[[2-(2,6-dioxopiperidin-3-yl)-1,3-dioxoisoindol-4-yl]amino]ethoxy)ethoxy]propanamide formic acid] | < 10 |  | < 10
COc1cc(-c2cn(C)c(=O)c3cnccc23)cc(OC)c1CN1CC2(C1)CN(C(=O)CCCCOc1cccc3c1C(=O)N(C1CCC(=O)NC1=O)C3=O)C2 (stereo not shown) [Compound D34, 4-((5-(6-(2,6-dimethoxy-4-(2-methyl-1-oxo-1,2-dihydro-2,7-naphthyridin-4-yl)benzyl)-2,6-diazaspiro[3.3]heptan-2-yl)-5-oxopentyl)oxy)-2-(2,6-dioxopiperidin-3-yl)isoindoline-1,3-dione] | < 10 |  | < 10
COc1cc(-c2cn(C)c(=O)c3cnccc23)cc(OC)c1CN1CC(CCNC(=O)CCOCCOc2ccc3c(c2)C(=O)N(C2CCC(=O)NC2=O)C3=O)C1 (stereo not shown) [Compound D117] | < 10 | 100 to 1000 | 
COc1cc(-c2cn(C)c(=O)c3cnccc23)cc(OC)c1CN1CCC2(C[C@@H]2NC(=O)CCOCCOc2ccc3c(c2)C(=O)N(C2CCC(=O)NC2=O)C3=O)C1 (stereo partly shown) [Compound D125] | < 10 | 10 to 100 | 
COc1cc(-c2cn(C)c(=O)c3cnccc23)cc(OC)c1CN1CC2(CCN(C(=O)CCOCCOc3cccc4c3C(=O)N(C3CCC(=O)NC3=O)C4=O)CC2)C1 (stereo not shown) [Compound D85] | 10 to 100 |  | 100 to 1000
COc1cc(-c2cn(C)c(=O)c3cnccc23)cc(OC)c1CN(C)C12CC(C(=O)NCCCCCNc3cccc4c3C(=O)N(C3CCC(=O)NC3=O)C4=O)(C1)C2 (stereo not shown) [Compound D57, 3-([[2,6-dimethoxy-4-(2-methyl-1-oxo-2,7-naphthyridin-4-yl)phenyl]methyl](methyl)amino)-N-(5-[[2-(2,6-dioxopiperidin-3-yl)-1,3-dioxoisoindol-4-yl]amino]pentyl)bicyclo[1.1.1]pentane-1-carboxamide formic acid] | 10 to 100 |  | < 10
COc1cc(-c2cn(C)c(=O)c3cnccc23)cc(OC)c1CN(C)C12CC(NC(=O)CCCCCOc3cccc4c3C(=O)N(C3CCC(=O)NC3=O)C4=O)(C1)C2 (stereo not shown) [Compound D60, N-[3-([[2,6-dimethoxy-4-(2-methyl-1-oxo-2,7-naphthyridin-4-yl)phenyl]methyl](methyl)amino)bicyclo[1.1.1]pentan-1-yl]-6-[[2-(2,6-dioxopiperidin-3-yl)-1,3-dioxoisoindol-4-yl]oxy]hexanamide formic acid] | < 10 |  | < 10
COc1cc(-c2cn(C)c(=O)c3cnccc23)cc(OC)c1CN(C)CC1CC2CN(C(=O)CCOCCOc3cccc4c3C(=O)N(C3CCC(=O)NC3=O)C4=O)C[C@@H]2C1 (stereo partly shown) [Compound D166] | < 10 | 10 to 100 | 
COc1cc(-c2cn(C)c(=O)c3cnccc23)cc(OC)c1CN(C)C1CCC12CCN(C(=O)CCOCCOc1ccc3c(c1)C(=O)N(C1CCC(=O)NC1=O)C3=O)CC2 (stereo not shown) [Compound D173] | 10 to 100 |  | < 10
COc1cc(-c2cn(C)c(=O)c3cnccc23)cc(OC)c1CN(C)C1CC2CN(C(=O)CCOCCOc3ccc4c(c3)C(=O)N(C3CCC(=O)NC3=O)C4=O)CC2C1 (stereo not shown) [Compound D169] | < 10 | 10 to 100 | 
COc1cc(-c2cn(C)c(=O)c3cnccc23)cc(OC)c1CN1CC(C)(C(=O)NCCCCCCCCNc2cccc3c2C(=O)N(C2CCC(=O)NC2=O)C3=O)C1 (stereo not shown) [Compound D13, 1-(2,6-dimethoxy-4-(2-methyl-1-oxo-1,2-dihydro-2,7-naphthyridin-4-yl)benzyl)-N-(8-((2-(2,6-dioxopiperidin-3-yl)-1,3-dioxoisoindolin-4-yl)amino)octyl)-3-methylazetidine-3-carboxamide] | < 10 | < 10 | 
COc1cc(-c2cn(C)c(=O)c3cnccc23)cc(OC)c1CN1CCC2(CC1)CN(C(=O)CCOCCOc1cccc3c1C(=O)N(C1CCC(=O)NC1=O)C3=O)C2 (stereo not shown) [Compound D88] | < 10 | 10 to 100 | 
COc1cc(-c2cn(C)c(=O)c3cnccc23)cc(OC)c1CN(C)C1CC2CN(C(=O)CCOCCOc3cccc4c3C(=O)N(C3CCC(=O)NC3=O)C4=O)CC2C1 (stereo not shown) [Compound D160] | < 10 | 10 to 100 | 
COc1cc(-c2cn(C)c(=O)c3cnccc23)cc(OC)c1CN1CCC2(CC1)CN(C(=O)COc1cccc3c1C(=O)N(C1CCC(=O)NC1=O)C3=O)CCO2 (stereo not shown) [Compound D41, 4-[2-(9-[[2,6-dimethoxy-4-(2-methyl-1-oxo-2,7-naphthyridin-4-yl)phenyl]methyl]-1-oxa-4,9-diazaspiro[5.5]undecan-4-yl)-2-oxoethoxy]-2-(2,6-dioxopiperidin-3-yl)isoindole-1,3-dione formic acid] | < 10 | 10 to 100 | 
COc1cc(-c2cn(C)c(=O)c3cnccc23)cc(OC)c1CN1CC(S(=O)(=O)NCCCCCNc2ccc3c(c2)C(=O)N(C2CCC(=O)NC2=O)C3=O)C1 (stereo not shown) [Compound D23, 1-[[2,6-dimethoxy-4-(2-methyl-1-oxo-1,2-dihydro-2,7-naphthyridin-4-yl)phenyl]methyl]-N-(5-[[2-(2,6-dioxopiperidin-3-yl)-1,3-dioxo-2,3-dihydro-1H-isoindol-5-yl]amino]pentyl) azetidine-3-sulfonamide formic acid] | < 10 |  | < 10
COc1cc(-c2cn(C)c(=O)c3cnccc23)cc(OC)c1CN1CCCC(OCc2cn(CCCOc3ccc4c(c3)C(=O)N(C3CCC(=O)NC3=O)C4=O)nn2)C1 (stereo not shown) [Compound D151] | < 10 | 10 to 100 | 
